# Measured values taken from patent US10408813B2, “Biosensor for detecting intracellular cyclic adenosine monophosphate (cAMP) and uses thereof” (Academia Sinica, priority 2015, dated 2019).
# Legend:
# GLP-1R = GLP-1R (UniProt P01275+P32301); experiment: BRET cAMP response assay in RINm5F cells, GLP-1R-mediated cAMP production; format: cell-based, rat; conditions: for effect on dose response curve / potency of GLP-1 (7-36) amide: lipids at concentrations indicated in FIG. 4C-E (ODA 72 uM); for effect on cAMP responses to 200 μM of GLP-1 (7-36) amide: 9 uM OEA or 8.4 uM 2-OG; for effect on dose-response curve for GLP-1 (7-36) amide to stimulate cAMP production: lipid at 9 to 8 uM; for effect on potency of Ex-4 to stimulate cAMP production: lipid up to 27 uM; for effect on dose response curve of GLP-1 (7-36) amide: OA and LA at 106 and 107 uM, respectively
# His-tagged GLP-1 (7-36) = target: T1, His-tagged GLP-1 (7-36) (Homo sapiens, UniProt P01275); experiment: GLP-1 and OEA binding assay (3H-OEA, Cu-NTA resin capture)
# T1 construct: purchased LifeTein
# Method: Specific bound ^3H-OEA was obtained by subtracting the supernatant ^3H-OEA of reaction from supernatant ^3H-OEA of reaction without GLP-1. […] Copper-nitrilotriacetate resin (Cu^++-NTA), 3 uL in 30 uL of DPBS, was added to capture all the His-tagged GLP-1 (up to 60 uM in 80 uL reaction), further incubated with rotation at RT for 30 min. […] Bound ^3H-OEA=[supernatant ^3H-OEA of nonspecific binding]−[supernatant ^3H-OEA of total binding]. […] The bound ^3H-OEA and free ^3H-OEA were separated as described above, and specific binding was calculated; Bound ^3H-OEA=[supernatant ^3H-OEA of nonspecific binding reaction]−[supernatant ^3H-OEA in the total binding reaction]
# GLP-1 (7-36) amide = target: T2, GLP-1 (7-36) amide (Homo sapiens, UniProt P01275); experiment: Limited trypsin digestion of GLP-1 (7-36) amide, residual activity by cAMP response in RINm5F cells
# T2 construct: purchased LifeTein
# GPR119 = target: T3, GPR119 (Homo sapiens, UniProt Q8TDV5); conditions: literature (34); read-out: reported EC50 to activate GPR119; cited from earlier work
# T3 sequence (Q8TDV5 1-335): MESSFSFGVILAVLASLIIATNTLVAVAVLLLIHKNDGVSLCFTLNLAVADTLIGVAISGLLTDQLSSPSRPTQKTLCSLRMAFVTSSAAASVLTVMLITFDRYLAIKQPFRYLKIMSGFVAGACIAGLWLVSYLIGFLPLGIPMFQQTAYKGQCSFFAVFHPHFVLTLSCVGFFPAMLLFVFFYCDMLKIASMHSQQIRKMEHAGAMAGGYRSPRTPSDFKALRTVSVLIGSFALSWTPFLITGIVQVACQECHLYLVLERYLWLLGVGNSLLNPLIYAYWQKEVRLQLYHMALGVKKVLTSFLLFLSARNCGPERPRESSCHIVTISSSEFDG
# RINm5F cells = experiment: BRET cAMP response assay, lipids present alone; format: cell-based, rat; conditions: 28 μM for 2-OG
# receptors for glucagon = receptors for glucagon (Rattus norvegicus, UniProt P30082); experiment: BRET cAMP response assay in RINm5F cells, glucagon receptor; format: cell-based; conditions: 100 uM antagonist (FIG. 3C)
# adenylyl cyclase = experiment: BRET assay with RG-cAMP sensor, adenylyl cyclase activation by forskolin
# GLP-1R-V2R membrane = target: T4, GLP-1R-V2R membrane (Homo sapiens, UniProt P01275+P43220); experiment: Receptor binding assay, saturation binding of 125I-GLP-1(7-36)
# T4 construct: the first 440 amino acids of the GLP-1R (Met1 to Thr440); expressed in transfected cells; host or cells: U2OS osteosarcoma cells stably co-expressing β-arrestin2:GFP; membrane preparation
# trypsin = target: T5, trypsin (Sus scrofa, UniProt P00761); experiment: In vitro assay of trypsin activity in the presence of OEA; format: biochemical; conditions: 92 uM OEA, 0.000125% trypsin
# T5 construct: purchased Life Technologies (trypsin-EDTA, inferred); assay kit from BioVision
# Method: To determine whether OEA affects trypsin activity, we used the Trypsin Activity Colorimetric Test Kit (BioVision, Milpitas, Calif., USA). Briefly, 2 μL substrate was added to a well in 96-well plate containing 48 μL 0.000125% trypsin in the presence or absence of 92 uM OEA. Reactions were conducted at room temperature, and the extent of cleavage was monitored by real-time reading of optical density (OD) at 405 nm
# [1] = target: RG-cAMP sensor in RINm5F cells (Homo sapiens, UniProt O95398, F824A/R193G/T823A); experiment: BRET assay with RG-cAMP sensor, titration of membrane-permeable cAMP analog
# receptors for GIP = target: T6, receptors for GIP (Rattus norvegicus, UniProt P43219); experiment: BRET cAMP response assay in RINm5F cells, GIP receptor; format: cell-based; conditions: 5 uM antagonist (FIG. 3B)
# T6 sequence (P43219 19-455): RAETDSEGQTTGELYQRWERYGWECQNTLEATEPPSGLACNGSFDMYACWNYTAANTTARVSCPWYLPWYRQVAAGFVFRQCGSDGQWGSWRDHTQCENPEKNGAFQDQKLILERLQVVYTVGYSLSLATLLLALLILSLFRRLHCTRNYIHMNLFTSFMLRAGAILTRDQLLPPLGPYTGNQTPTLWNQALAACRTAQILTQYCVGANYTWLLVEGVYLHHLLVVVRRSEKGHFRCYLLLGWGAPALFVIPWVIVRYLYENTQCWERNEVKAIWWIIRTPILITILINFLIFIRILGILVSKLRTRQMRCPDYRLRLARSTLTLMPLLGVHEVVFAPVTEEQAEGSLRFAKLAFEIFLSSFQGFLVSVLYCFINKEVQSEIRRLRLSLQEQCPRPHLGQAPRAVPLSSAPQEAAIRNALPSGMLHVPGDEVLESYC
# [2] = RINm5F cells stably expressing RG-cAMP sensor
# Chain of GLP-1R (P32301 22-463, one chain of several): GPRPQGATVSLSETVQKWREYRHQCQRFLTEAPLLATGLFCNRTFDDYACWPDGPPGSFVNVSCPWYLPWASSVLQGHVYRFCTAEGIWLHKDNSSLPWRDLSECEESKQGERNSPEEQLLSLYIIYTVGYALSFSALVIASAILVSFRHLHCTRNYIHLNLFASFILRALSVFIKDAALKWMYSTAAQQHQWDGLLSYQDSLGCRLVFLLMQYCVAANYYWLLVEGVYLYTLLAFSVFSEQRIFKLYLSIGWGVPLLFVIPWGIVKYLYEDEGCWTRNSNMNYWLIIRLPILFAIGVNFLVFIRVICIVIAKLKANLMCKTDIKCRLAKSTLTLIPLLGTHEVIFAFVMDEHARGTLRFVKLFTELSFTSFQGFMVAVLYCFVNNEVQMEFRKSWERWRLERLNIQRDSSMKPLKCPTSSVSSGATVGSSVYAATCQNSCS
# T4 sequence (P43220 with tags, fused parts or gaps limits assumed, one chain of several): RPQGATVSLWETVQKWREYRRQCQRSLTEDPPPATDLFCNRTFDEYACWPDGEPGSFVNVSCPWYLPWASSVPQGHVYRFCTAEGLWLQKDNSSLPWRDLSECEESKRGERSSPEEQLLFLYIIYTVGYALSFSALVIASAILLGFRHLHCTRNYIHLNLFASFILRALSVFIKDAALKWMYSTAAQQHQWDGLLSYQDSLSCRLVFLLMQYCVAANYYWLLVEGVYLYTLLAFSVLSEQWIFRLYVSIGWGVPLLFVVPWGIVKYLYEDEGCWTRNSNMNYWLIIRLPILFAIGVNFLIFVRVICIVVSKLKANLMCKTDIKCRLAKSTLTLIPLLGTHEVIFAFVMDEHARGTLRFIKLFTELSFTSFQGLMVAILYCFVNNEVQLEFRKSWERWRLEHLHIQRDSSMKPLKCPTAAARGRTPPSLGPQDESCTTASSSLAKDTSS
# Chain of receptors for glucagon (P30082 27-485): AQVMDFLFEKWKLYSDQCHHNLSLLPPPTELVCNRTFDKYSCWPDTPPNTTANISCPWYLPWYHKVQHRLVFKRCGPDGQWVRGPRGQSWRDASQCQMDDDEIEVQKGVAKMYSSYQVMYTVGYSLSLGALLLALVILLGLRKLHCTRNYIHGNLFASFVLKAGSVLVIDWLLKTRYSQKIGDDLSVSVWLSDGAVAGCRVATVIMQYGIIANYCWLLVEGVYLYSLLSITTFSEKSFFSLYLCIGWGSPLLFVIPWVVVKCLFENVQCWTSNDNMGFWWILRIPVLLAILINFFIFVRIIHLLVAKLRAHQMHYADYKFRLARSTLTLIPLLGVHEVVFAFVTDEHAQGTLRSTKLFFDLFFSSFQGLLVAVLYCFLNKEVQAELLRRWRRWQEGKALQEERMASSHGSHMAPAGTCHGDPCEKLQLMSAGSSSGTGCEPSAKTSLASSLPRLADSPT
# T5 sequence (P00761 9-231): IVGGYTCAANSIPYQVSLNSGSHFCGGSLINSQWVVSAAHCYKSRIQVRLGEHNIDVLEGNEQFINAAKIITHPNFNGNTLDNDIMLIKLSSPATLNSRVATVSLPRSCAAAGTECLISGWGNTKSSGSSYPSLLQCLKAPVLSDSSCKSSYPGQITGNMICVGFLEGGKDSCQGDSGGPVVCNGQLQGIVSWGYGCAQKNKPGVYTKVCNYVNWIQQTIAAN
compound,measurement,setting,value
"CCCCCCCCCCCCCCCCCC(=O)O [SA, stearic acid]",effect on dose response curve / potency of GLP-1 (7-36) amide,GLP-1R,did not show such an effect
"CCCCCCCCCCCCCCCCCC(=O)NCCO [SEA, stearoylethanolamide]",effect on binding of 3H-OEA to His-tagged GLP-1(7-36),His-tagged GLP-1 (7-36); competition assay,did not affect the binding
same,effect on dose response curve / potency of GLP-1 (7-36) amide,GLP-1R,did not affect GLP-1 potency
same,effect on trypsin digestion of GLP-1 (7-36) amide,"GLP-1 (7-36) amide; 1 uM to 92 uM lipid, 0.00067% trypsin",did not affect trypsin digestion
"CCCCCCCC/C=C\CCCCCCCC(=O)NCCc1ccc(O)c(O)c1 [ODA, n-oleoyldopamine]",effect on dose response curve / potency of GLP-1 (7-36) amide,GLP-1R,did not affect GLP-1 potency
"CCCCCCCC/C=C\CCCCCCCC(=O)OC(CO)CO [2-OG, 2-oleoylglycerol]",EC50,GPR119,2900 nM
same,Ki,His-tagged GLP-1 (7-36),100 ± 30 nM
same,cAMP response to lipid present alone,RINm5F cells,did not elicit cAMP responses
same,effect on cAMP responses to 200 μM of GLP-1 (7-36) amide,GLP-1R,remarkably enhanced
same,effect on dose-response curve for GLP-1 (7-36) amide to stimulate cAMP production,GLP-1R,markedly left-shifted
same,effect on potency of Ex-4 to stimulate cAMP production,GLP-1R,unaltered
Ex-9: GLP-1 receptor antagonist exendin 9 [reference compound],effect of antagonist on cAMP response to GLP-1 (7-36) amide,GLP-1R; 500 nM antagonist (FIG. 3A),curtailed
same,lipid enhancement and cAMP responses with GLP-1 receptor signaling blocked,"GLP-1R; 500 nM exendin 9, GLP-1 (7-36) amide with OEA or 2-OG",barely detectable
"CC/C=C\C/C=C\C/C=C\CCCCCCCC(=O)O [ALA, α-linolenic acid]",effect on dose response curve / potency of GLP-1 (7-36) amide,GLP-1R,did not show such an effect
"[des-His1,Glu9]-glucagon amide: glucagon antagonist",effect of antagonist on cAMP response to glucagon,receptors for glucagon,curtailed
C=C[C@@]1(C)CC(=O)[C@]2(O)[C@@]3(C)[C@@H](O)CCC(C)(C)[C@@H]3[C@H](O)[C@H](OC(C)=O)[C@@]2(C)O1 [forskolin],EC50 for reduction of BRET ratio,adenylyl cyclase; [2],70 nM
same,"BRET ratio reduction, basal cAMP level to maximally stimulated",adenylyl cyclase; maximal forskolin stimulation,0.3 unit
"[3H]/C(CCCCCCCC)=C(\[3H])CCCCCCCC(=O)NCCO [^3H-OEA, Oleoyl [9,10-^3H]ethanolamide, reference compound]",concentration of 3H-OEA to achieve half-maximal binding,"His-tagged GLP-1 (7-36); 0.1 uM His-tagged GLP-1 (7-36), estimated",0.28 ± 0.07 µM
same,specific binding to GLP-1 receptor,GLP-1R-V2R membrane,not able to observe detectable specific binding
"Cl.c1ccc(C2CCCC2NC2=NCCCCCCCCCCC2)cc1 (stereo not shown) [MDL-12,330A]",effect on forskolin-elicited BRET response,adenylyl cyclase; 250 μM inhibitor,eliminated
"CCCCCCCC/C=C\CCCCCCCC(=O)O [OA, oleic acid]",effect on dose response curve of GLP-1 (7-36) amide,GLP-1R,consistently but mildly left-shifted
"CCCCCCCC/C=C\CCCCCCCC(=O)NCCO [OEA, oleoylethanolamide]",EC50,GPR119,2900 nM
same,effect on innate trypsin activity,trypsin,does not affect the innate trypsin activity
same,Bmax of 125I-GLP-1,GLP-1R-V2R membrane; in the presence of 9.2 uM OEA,51±6.5 pmole/mg of membrane
same,cAMP response to lipid present alone,RINm5F cells,did not elicit cAMP responses
same,effect on cAMP responses to 200 μM of GLP-1 (7-36) amide,GLP-1R,remarkably enhanced
same,effect on dose-response curve for GLP-1 (7-36) amide to stimulate cAMP production,GLP-1R,markedly left-shifted
same,effect on potency of Ex-4 to stimulate cAMP production,GLP-1R,unaltered
same,factor of reduction of residual activity of GLP-1 (7-36) amide after trypsin digestion,"GLP-1 (7-36) amide; 0.00067% trypsin, OEA increased from 1 uM to 92 uM",more than 40
same,factor of reduction of GLP-1 activity after trypsin cleavage,GLP-1 (7-36) amide; trypsin cleavage in the presence of 92 uM OEA,more than 300
"COC1C2OP(=O)(OCOC(C)=O)OCC2OC1n1c(Br)nc2c(N)ncnc21 (stereo not shown) [8-Br-2-O-Me-cAMP-AM, 8-Br-2′-O-Me-cAMP-AM]",concentration at which half maximal reduction of BRET ratio is elicited (EC50),[1]; [2],2600 nM
same,BRET ratio reduction,[1]; concentration change from 0.2 μM to 50 μM,0.45 unit
"CCCCC/C=C\C/C=C\CCCCCCCC(=O)O [LA, linoleic acid]",effect on dose response curve of GLP-1 (7-36) amide,GLP-1R,consistently but mildly left-shifted
"GIP(8-42): GIP antagonist, SEQ ID NO: 14 (SDYSIAMDKIHQQDFVNWLLAQKGKKNDWKHNITQ; GIP 8-42)",effect of antagonist on cAMP response to GIP,receptors for GIP,curtailed
"His-tagged GLP-1 (7-36): SEQ ID NO: 6, six consecutive histidine residues tagged to the C-terminal of GLP-1 (7-36) peptide (HAEGTFTSDVSSYLEGQAAKEFIAWLVKGRHHHHHH; His-tagged GLP-1 (7-36)) [reference compound]",concentration of GLP-1 to achieve half-maximal binding of OEA,"His-tagged GLP-1 (7-36); 0.2 uM 3H-OEA, estimated",0.16 ± 0.05 µM
"CCCCCCCCCCCCCCCC(=O)NCCO [PEA, palmitoylethanolamide]",effect on dose response curve / potency of GLP-1 (7-36) amide,GLP-1R,did not affect GLP-1 potency
"CCCCC/C=C\C/C=C\C/C=C\CCCCC(=O)O [γ-LA, γ-linolenic acid]",effect on dose response curve / potency of GLP-1 (7-36) amide,GLP-1R,did not show such an effect
